Test results taken from ChEMBL document CHEMBL5729305, “Compounds, salts thereof and methods for treatment of diseases” (2022).

Molecular target: 5-hydroxytryptamine receptor 2A (Homo sapiens, UniProt P28223)
Experiment: Receptor Selection and Amplification (R-SAT) Assays: R-SAT's were generally performed with 50 ng/well of receptor and 20 ng/well of β-galactosidase plasmid DNA. All receptor constructs used were in the pSI mammalian expression vector (Promega Inc) as described previously. The 5-HT2A receptor gene was amplified by nested PCR (polymerase chain reaction) from brain cDNA using the …
Assay type: cell-based

Sequence of 5-hydroxytryptamine receptor 2A (P28223 whole entry): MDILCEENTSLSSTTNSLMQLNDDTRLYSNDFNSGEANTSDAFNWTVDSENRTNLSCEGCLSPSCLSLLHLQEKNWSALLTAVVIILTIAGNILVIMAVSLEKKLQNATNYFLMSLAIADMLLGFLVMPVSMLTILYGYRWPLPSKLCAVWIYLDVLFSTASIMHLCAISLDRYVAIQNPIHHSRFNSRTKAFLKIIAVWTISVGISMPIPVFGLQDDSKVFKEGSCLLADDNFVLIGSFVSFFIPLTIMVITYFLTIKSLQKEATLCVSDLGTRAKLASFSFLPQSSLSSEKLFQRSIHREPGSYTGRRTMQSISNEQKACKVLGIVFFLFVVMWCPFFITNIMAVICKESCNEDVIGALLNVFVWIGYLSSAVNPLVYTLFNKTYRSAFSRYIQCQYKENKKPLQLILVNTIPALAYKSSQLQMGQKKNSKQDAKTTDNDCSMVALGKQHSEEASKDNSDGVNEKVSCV

With `CC(C)Oc1ccc(CC(=O)N(Cc2ccc(F)cc2F)[C@@H]2CCN(C)C[C@@H]2F)cc1` (mixture of isomers) the Ki was 10 nM.
